Patent US20230115335A1, “PYRAZOLE DERIVATIVES WITH ANTICANCER ACTIVITY” (BOARD OF REGENTS, THE UNIVERSITY OF TEXAS SYSTEM, priority 2021, published 2023)
Like-named read-outs stand apart in the source and are kept apart here.

Legend:
CEM cell line = assay: DNS cytotoxicity assay, CEM; assay type: cell-based, human; settings: Homo sapiens, CCRF-CEM, read-out: CEM CC50
Excerpt: […] […] After treatment, images were acquired and analyzed to determine percentages of live/dead cells and their cytotoxicity. […] The Hs-27 non-cancerous human foreskin fibroblast cell line was used for comparison purposes.

MDA-MB231 = assay: DNS cytotoxicity assay, MDA-MB-231; assay type: cell-based; settings: Homo sapiens, 72 hr incubations, read-out: Cell Line CC50 MDA-MD-231*
Protocol: (§1) Since the non-adherent (free floating) lymphoma/leukemia cell lines divide faster than the adherent cell lines, they were incubated for a shorter period (48 h) of time with the compound.
(§2) Lymphoma/leukemia cell lines, which grow in suspension, were incubated for 48 h with the compounds. […] After treatment, images were acquired and analyzed to determine percentages of live/dead cells and their cytotoxicity. […] The Hs-27 non-cancerous human foreskin fibroblast cell line was used for comparison purposes.

[1] = DNS cytotoxicity assay, MCF10A; assay type: cell-based; settings: human, MCF10A non-cancerous cells, 72 hr incubations, read-out: Cell Line CC50 MCF10A*
Protocol: as §1

[2] = DNS cytotoxicity assay, HS-27 non-cancerous fibroblast; assay type: cell-based; settings: human, Hs-27 non-cancerous foreskin fibroblast cells; 72 hr incubations; non-cancerous; read-out: Cell Line CC50 HS-27*
Protocol: as §1, §2

Jurkat = assay: DNS cytotoxicity assay, Jurkat; assay type: cell-based, human; settings: Homo sapiens, Jurkat; Lymphoma-Leukemia; 48 hrs
Excerpt: Using the high throughput Differential Nuclear Staining (DNS) screening assay (Lema et al., Current Cellular Biochemistry 1, 1-14, 2011) 15 pyrazole compounds were synthesized and screened on the human T-cell Acute Lymphoblastic Leukemia CEM cell line (Tables 1 and 2). […] The compounds were synthesized based on a pyrazole backbone structure previously determined to have potent cytotoxic activity (FIG. 5). Several commercial and non-commercial analogues (see Table 3) have been tested and determined that the ones with highest activity have a similar structure circled in FIG. 5. […] SSK-3 has been tested on a few cancer cell lines (see Table 4) and also found to induce programmed cell death via a variety of biochemical assays. […] Since the non-adherent (free floating) lymphoma/leukemia cell lines divide faster than the adherent cell lines, they were incubated for a shorter period (48 h) of time with the compound.
SSK-3 has potent cytotoxic activity against a panel of human cancer cell lines. The cytotoxic activity of SSK-3 was examined by the DNS assay (Lema et al., Current Cellular Biochemistry 1, 1-14, 2011). Lymphoma/leukemia cell lines, which grow in suspension, were incubated for 48 h with the compounds. Since the adherent cells generally divide at a slower rate than the non-adherent cell lines, the MDA-MB231, HCC1419, T47D, COLO205, PANC-1, A-549 adherent cancer cells lines were incubated for 72 h in the presence of the compounds. After treatment, images were acquired and analyzed to determine percentages of live/dead cells and their cytotoxicity. […] The Hs-27 non-cancerous human foreskin fibroblast cell line was used for comparison purposes.

O=C(N/N=C1\C(=O)N(CN2CCOCC2)c2ccccc21)c1n[nH]c2c1CCC2 [SSK-5]
CC50 (CEM cell line): > 10 µM

COc1ccc(/C=N/NC(=O)c2n[nH]c3c2CCC3)cc1O [P3C.10]
CC50 (MDA-MB231): 2.91 µM | CC50 at 72 h [1]: 2.46 µM | CC50 at 72 h [2]: > 10 µM

CCN(CC)c1ccc(/C=N/NC(=O)c2n[nH]c3c2CCC3)cc1 [P3C.4]
CC50 (MDA-MB231): 2.91 µM | CC50 at 72 h [1]: 2.46 µM | CC50 at 72 h [2]: > 10 µM

O=C(N/N=C/c1ccc(Br)cc1)c1n[nH]c2c1CCC2 [P3C.1]
CC50 (MDA-MB231): 0.097 µM | CC50 at 72 h [1]: 0.42 µM | CC50 at 72 h [2]: 0.78 µM | CC50 (Jurkat): 0.39 µM

O=C(N/N=C/c1ccc(OCc2cn(Cc3ccccc3)nn2)cc1)c1n[nH]c2c1CCC2 [SSK-14]
CC50 (CEM cell line; Initial Screen, DNS assay): > 10 µM

Cc1ccc(Cn2cc(COc3ccc(/C=N/NC(=O)c4n[nH]c5c4CCC5)cc3)nn2)cc1 [SSK-13]
CC50 (CEM cell line; Initial Screen, DNS assay): > 10 µM

O=C(N/N=C/c1ccccc1Br)c1n[nH]c2c1CCC2 [P3C.5]
CC50 (MDA-MB231): 9.88 µM | CC50 at 72 h [1]: 6.36 µM | CC50 at 72 h [2]: > 10 µM

O=C(N/N=C/c1cn(-c2ccccc2)nc1-c1ccccc1)c1n[nH]c2c1CCC2 [SSK-7]
CC50 (CEM cell line; Initial Screen, DNS assay): 8.15 ± 0.23 µM

O=C(N/N=C/c1cn(-c2ccccc2)nc1-c1cc2ccccc2oc1=O)c1n[nH]c2c1CCC2 [SSK-12]
CC50 (CEM cell line; Initial Screen, DNS assay): 8.25 ± 0.26 µM

Cc1ccc(-c2nn(-c3ccccc3)cc2/C=N/NC(=O)c2n[nH]c3c2CCC3)cc1 [SSK-8]
CC50 (CEM cell line; Initial Screen, DNS assay): 3.6 ± 0.16 µM

O=C1Nc2ccccc2/C1=N/NC(=O)c1n[nH]c2c1CCC2 [SSK-1]
CC50 (CEM cell line; Initial Screen, DNS assay): 12.1 ± 1.11 µM
